Measured values published in the NIST ThermoML archive (doi:10.1021/je900978x).

Conditions: Fluid (supercritical or subcritical phases), Buoyancy - hydrostatic balance with magnetic suspension - one sinker

CC [ethane]
Conditions	mass density [kg/m3]
298.15 K, 2000 kPa	29.226
298.15 K, 5987 kPa	352.999
298.15 K, 7909 kPa	371.593
298.15 K, 10071 kPa	385.867
298.15 K, 14959 kPa	407.911
298.15 K, 20004 kPa	423.934
298.15 K, 24927 kPa	436.235
298.15 K, 29893 kPa	446.599
298.15 K, 35020 kPa	455.82
298.15 K, 39905 kPa	463.582
298.15 K, 49977 kPa	477.362
298.15 K, 75091 kPa	503.592
298.15 K, 99827 kPa	523.125
298.15 K, 119760 kPa	536.225
298.15 K, 149807 kPa	552.995
350 K, 1999 kPa	22.819
350 K, 29974 kPa	384.889
350 K, 49928 kPa	430.315
350 K, 74959 kPa	464.696
350 K, 100019 kPa	489.111
350 K, 124863 kPa	508.192
350 K, 149906 kPa	524.195
350 K, 172157 kPa	536.528
400 K, 805 kPa	7.452
400 K, 7325 kPa	84.481
400 K, 27286 kPa	311.921
400 K, 48575 kPa	383.533
400 K, 69346 kPa	421.214
400 K, 92289 kPa	450.02
400 K, 117459 kPa	473.901
400 K, 139686 kPa	491.026
400 K, 154657 kPa	501.119
400 K, 166558 kPa	508.474
400 K, 181565 kPa	517.111
400 K, 196062 kPa	524.823
450 K, 1998 kPa	16.685
450 K, 5021 kPa	44.467
450 K, 10001 kPa	96.599
450 K, 20005 kPa	202.282
450 K, 30018 kPa	272.417
450 K, 49974 kPa	346.238
450 K, 69967 kPa	388.105
450 K, 79928 kPa	403.693
450 K, 99962 kPa	429.113
450 K, 119860 kPa	449.29
450 K, 139478 kPa	465.963
